The test system of series [1] is A431 (WT). Kind of series: A431 cells proliferation assay (CellTiter Glo). The class given is cell-based. The note with it: Homo sapiens, A-431; cell proliferation, 72 h. The procedure, abridged: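 Wild-type A431 cells seeded at 5000/well in DMEM/10% FBS were exposed 72 h at 37° C to compound at 10000 nM top, 3-fold down to 1.5 nM, in 0.5% DMSO. Viability by CellTiter-Glo luminescence; IC50 from four-parameter nonlinear regression.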
(ATP-based viability assays read luminescence as a measure of living cells.)

The nature of series [2]: Pharmacokinetic assay, oral administration. Format: in vivo. Particulars: rat, male SD rats, plasma. As to the method: Test 5 Pharmacokinetic Assay
Male SD rats, oral administration (intragastric administration), 3 in each group. Animals administered by gavage were fasted overnight before the experiment, and the fasting time was from at least 12 hours before administration to 4 hours after administration. The blood was collected using the orbital vein. Time of blood collection by oral administration: 15 min, 30 min, 1 h, 2 h, 4 h, 7 h, 24 h. The blood collection volume was 300 uL, and after anticoagulation with 2.0% EDTA, the blood was centrifuged at 4000 rpm for 5 min, and the blood plasma was taken for about 100 uL, and placed in −20° C. for examination. The plasma sample was analyzed using liquid chromatography tandem mass spectrometry (LC-MS/MS). Plasma concentration-time data for individual animals were analyzed using WinNonlin (V4.1, Pharsight) software with a non-compartmental model and the pharmacokinetic parameters of the test compounds were calculated.

Series [3] deals with EGFR L858R/T790M/C797S (Homo sapiens, UniProt P00533, C797S/L858R/T790M). The experiment in a line: Kinase assay (mobility shift), EGFR L858R/T790M/C797S. The class given is biochemical.
In series [4] the target is Ba/F3-Del19/T790M/C797S (Homo sapiens, UniProt P00533, T790M/C797S, cells depend on it, form not given). The experiment in a line: Ba/F3-Del19/T790M/C797S cells proliferation assay (CellTiter Glo). Format: cell-based. Particulars: cell proliferation, 72 h, read-out: Ba/F3-Del19/T790M/C797S IC50. An outline of the steps:
(§1)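 Ba/F3 cells carrying EGFR Del19/T790M/C797S or L858R/T790M/C797S seeded at 2000 cells/well and exposed 72 h at 37 °C to compound (1000 nM top, 3-fold series, 0.5% DMSO). Viability read by CellTiter-Glo luminescence; IC50 from four-parameter non-linear regression.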

In series [5] the target is Ba/F3-L858R/T790M/C797S (Homo sapiens, UniProt P00533, T790M/C797S/L858R, cells depend on it). The experiment in a line: Ba/F3-L858R/T790M/C797S cells proliferation assay (CellTiter Glo). Format: cell-based. Particulars: cell proliferation, 72 h, read-out: Ba/F3-L858R/T790M/C797S IC50. The procedure, abridged:
as §1

Series [6] deals with EGFR Del19/T790M/C797S (Homo sapiens, UniProt P00533, T790M/C797S, form not given). The experiment in a line: Kinase assay (mobility shift), EGFR Del19/T790M/C797S. The class given is biochemical. As to the method:
(§2) Test 1 Kinase Assay for EGFR Del19/T790M/C797S and EGFR Wildtype
(§3) Enzyme reaction protocol are as follows:
(§4) 1. Preparing 1* Kinase buffer as followed.
(§5) 2. Preparing Compound Concentration Gradient: Compounds were tested at a concentration of 300 nM, diluted to 100-fold final concentration in 100% DMSO solution in 96-well plates, and compounds were diluted 3 times with Precision, 10 concentrations. Each concentration of the compound was then further diluted to a 5-fold final concentration of the intermediate dilution solution using 1* Kinase buffer.
(§6) 3.5 μL of each of the prepared intermediate dilution compounds was separately added to the compound wells of the 384-well plate, and each concentration was tested for duplicate wells; 5 μL of 5% DMSO was added to the negative control wells and the positive control wells, respectively.
(§7) 4. 2.5-fold final concentration of the kinase solution was prepared using 1*Kinase buffer.
(§8) 5. Add 10 μL of 2.5-fold final concentration of kinase solution to the compound well and positive control well; add 10 μL of 1*Kinase buffer to the negative control well.
(§9) 6. Centrifuge at 1000 rpm for 30 seconds, shake the reaction plate and incubate for 10 minutes at room temperature.
(§10) 7. A mixed solution of 2.5 times the final concentration of ATP and Kinase substrate (5-FAM-EEPLYWSFPAKKK-CONH2) was prepared using 1*Kinase buffer.
(§11) 8. 10 μL of a 2.5-fold final concentration of a mixed solution of ATP and a substrate was added to initiate the reaction.
(§12) 9. Centrifuge the 384-well plate at 1000 rpm for 30 seconds, mix by shaking, and incubate at room temperature for the corresponding time.
(§13) 10. Add 30 μL of the stop solution to stop the kinase reaction, centrifuge at 1000 rpm for 30 seconds, and mix by shaking.
(§14) 11. Read the conversion rate with Caliper EZ Reader.
(§15) Convert conversion values to inhibition values:
(§16) Percent inhibition 32 (max-conversion)/(max-min)*100.
(§17) “max” stands for the mean value of the positive control well ratio; “min” stands for the mean value of the negative control well.
(§18) Fit the data in log(inhibitor) vs. response Variable slope of GraphPad Prism 5 to obtain IC50 values.
(§19) Equation used is: Y=Bottom+(Top-Bottom)/(1+(IC50/X)^HillSlope)

Series [7] concerns the target EGFR WT (Homo sapiens, UniProt P00533). The experiment in a line: Kinase assay (mobility shift), EGFR wildtype. The class given is biochemical. The note with it: top concentration 300 nM. The procedure:
as §2, §3, §4, §5, §6, §7, §8, §9, §10, §11, §12, §13, §14, §15, §16, §17, §18, §19

Setting [8] is: p.o. 5 mg/kg, formulation differs per row.
The mark [9] stands for this setting: p.o. 10 mg/kg, formulation 5% DMSO/5% Solutol/90% normal saline.

The structures appear in SMILES notation. Where two headings read alike, the source gives them in different places.

Ba/F3-L858R/T790M/C797S, sequence (P00533 whole entry T790M/C797S/L858R): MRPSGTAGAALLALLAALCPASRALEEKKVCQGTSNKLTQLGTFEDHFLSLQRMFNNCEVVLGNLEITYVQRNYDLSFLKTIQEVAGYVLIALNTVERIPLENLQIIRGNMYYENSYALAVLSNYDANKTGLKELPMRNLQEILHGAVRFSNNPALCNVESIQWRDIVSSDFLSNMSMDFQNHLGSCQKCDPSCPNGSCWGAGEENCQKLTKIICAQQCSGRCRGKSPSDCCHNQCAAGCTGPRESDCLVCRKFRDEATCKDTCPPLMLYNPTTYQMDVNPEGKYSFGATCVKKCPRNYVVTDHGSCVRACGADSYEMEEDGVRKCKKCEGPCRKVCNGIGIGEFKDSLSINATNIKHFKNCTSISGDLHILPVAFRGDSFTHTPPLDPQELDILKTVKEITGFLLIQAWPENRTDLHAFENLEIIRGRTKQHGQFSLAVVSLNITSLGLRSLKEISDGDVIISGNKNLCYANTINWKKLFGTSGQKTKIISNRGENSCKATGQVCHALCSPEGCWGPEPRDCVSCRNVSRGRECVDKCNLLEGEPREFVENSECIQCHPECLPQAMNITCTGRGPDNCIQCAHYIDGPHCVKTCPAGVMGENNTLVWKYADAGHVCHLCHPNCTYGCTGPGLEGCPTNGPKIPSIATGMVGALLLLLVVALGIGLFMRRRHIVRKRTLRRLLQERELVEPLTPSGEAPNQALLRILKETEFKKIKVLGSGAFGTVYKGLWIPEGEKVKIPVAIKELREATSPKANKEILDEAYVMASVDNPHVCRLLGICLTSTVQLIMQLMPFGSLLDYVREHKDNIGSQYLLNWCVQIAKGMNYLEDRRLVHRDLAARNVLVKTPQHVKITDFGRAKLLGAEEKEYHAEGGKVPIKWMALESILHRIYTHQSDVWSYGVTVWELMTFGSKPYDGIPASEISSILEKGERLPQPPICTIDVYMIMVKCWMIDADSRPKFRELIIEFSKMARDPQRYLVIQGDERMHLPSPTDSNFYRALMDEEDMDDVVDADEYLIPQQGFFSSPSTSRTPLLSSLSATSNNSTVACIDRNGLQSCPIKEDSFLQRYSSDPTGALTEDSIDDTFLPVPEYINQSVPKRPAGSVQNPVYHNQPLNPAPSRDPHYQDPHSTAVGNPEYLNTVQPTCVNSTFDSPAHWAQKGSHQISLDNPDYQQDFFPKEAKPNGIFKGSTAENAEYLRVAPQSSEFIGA
EGFR WT, sequence (P00533 25-1210): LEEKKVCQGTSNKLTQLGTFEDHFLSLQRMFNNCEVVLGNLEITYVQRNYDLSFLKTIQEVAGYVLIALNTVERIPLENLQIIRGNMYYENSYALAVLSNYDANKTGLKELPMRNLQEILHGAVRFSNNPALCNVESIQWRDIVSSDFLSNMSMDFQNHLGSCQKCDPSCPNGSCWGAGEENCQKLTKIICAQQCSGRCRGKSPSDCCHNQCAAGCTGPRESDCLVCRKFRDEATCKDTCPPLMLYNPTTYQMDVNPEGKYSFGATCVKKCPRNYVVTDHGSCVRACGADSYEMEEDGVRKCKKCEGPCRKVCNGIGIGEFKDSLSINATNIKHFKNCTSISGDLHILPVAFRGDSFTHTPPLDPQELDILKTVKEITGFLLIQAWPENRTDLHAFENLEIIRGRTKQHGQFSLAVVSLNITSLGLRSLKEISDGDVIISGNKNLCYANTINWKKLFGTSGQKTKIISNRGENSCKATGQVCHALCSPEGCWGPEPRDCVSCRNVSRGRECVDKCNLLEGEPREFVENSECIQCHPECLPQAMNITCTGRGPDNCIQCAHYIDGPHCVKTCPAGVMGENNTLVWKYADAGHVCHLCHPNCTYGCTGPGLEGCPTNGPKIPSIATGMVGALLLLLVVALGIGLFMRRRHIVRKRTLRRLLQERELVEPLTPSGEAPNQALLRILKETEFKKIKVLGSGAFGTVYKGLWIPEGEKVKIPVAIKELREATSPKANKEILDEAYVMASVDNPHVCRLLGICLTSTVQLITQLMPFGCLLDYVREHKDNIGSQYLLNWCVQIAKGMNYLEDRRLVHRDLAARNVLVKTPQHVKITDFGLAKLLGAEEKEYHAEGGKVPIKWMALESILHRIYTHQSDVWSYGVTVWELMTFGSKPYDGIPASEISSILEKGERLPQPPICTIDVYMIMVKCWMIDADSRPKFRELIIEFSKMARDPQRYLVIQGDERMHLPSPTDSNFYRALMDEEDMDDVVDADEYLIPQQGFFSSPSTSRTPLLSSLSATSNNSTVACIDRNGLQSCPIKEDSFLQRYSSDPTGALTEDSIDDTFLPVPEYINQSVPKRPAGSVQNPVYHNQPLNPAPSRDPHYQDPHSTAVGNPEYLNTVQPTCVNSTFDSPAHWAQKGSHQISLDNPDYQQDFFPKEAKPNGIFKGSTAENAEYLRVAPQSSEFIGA
EGFR L858R/T790M/C797S, sequence (P00533 25-1210 T790M/C797S/L858R): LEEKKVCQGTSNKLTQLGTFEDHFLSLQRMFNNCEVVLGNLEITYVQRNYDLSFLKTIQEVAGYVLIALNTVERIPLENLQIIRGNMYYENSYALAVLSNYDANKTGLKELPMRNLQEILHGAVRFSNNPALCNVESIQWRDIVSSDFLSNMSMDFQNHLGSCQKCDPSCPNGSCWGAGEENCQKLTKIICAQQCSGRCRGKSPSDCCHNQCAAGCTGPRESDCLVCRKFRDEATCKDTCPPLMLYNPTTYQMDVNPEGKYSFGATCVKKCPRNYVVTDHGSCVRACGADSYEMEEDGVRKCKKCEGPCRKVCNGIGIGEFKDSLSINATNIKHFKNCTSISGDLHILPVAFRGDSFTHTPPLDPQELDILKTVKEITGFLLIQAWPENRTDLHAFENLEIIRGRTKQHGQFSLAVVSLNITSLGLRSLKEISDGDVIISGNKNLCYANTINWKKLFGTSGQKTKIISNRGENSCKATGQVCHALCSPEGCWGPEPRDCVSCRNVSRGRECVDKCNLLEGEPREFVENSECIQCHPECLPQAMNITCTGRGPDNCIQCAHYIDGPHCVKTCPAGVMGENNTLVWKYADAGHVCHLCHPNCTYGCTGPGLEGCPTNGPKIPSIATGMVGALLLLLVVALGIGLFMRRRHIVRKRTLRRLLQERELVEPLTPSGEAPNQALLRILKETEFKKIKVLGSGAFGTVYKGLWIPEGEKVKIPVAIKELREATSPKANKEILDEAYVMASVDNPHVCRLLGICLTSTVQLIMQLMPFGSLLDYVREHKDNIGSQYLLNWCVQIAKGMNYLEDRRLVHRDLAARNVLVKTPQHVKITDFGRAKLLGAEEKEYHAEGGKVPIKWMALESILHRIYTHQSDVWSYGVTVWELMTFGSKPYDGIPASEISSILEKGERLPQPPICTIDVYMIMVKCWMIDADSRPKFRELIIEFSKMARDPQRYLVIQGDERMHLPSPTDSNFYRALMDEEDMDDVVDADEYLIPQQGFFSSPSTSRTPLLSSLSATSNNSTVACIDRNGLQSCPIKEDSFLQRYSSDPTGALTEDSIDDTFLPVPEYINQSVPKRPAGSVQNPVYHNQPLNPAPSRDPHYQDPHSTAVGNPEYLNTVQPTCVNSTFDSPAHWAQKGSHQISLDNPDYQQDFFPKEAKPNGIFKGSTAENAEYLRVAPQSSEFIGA
Ba/F3-Del19/T790M/C797S, sequence (P00533 with tags, fused parts or gaps DEL746-750/T790M/C797S, form open): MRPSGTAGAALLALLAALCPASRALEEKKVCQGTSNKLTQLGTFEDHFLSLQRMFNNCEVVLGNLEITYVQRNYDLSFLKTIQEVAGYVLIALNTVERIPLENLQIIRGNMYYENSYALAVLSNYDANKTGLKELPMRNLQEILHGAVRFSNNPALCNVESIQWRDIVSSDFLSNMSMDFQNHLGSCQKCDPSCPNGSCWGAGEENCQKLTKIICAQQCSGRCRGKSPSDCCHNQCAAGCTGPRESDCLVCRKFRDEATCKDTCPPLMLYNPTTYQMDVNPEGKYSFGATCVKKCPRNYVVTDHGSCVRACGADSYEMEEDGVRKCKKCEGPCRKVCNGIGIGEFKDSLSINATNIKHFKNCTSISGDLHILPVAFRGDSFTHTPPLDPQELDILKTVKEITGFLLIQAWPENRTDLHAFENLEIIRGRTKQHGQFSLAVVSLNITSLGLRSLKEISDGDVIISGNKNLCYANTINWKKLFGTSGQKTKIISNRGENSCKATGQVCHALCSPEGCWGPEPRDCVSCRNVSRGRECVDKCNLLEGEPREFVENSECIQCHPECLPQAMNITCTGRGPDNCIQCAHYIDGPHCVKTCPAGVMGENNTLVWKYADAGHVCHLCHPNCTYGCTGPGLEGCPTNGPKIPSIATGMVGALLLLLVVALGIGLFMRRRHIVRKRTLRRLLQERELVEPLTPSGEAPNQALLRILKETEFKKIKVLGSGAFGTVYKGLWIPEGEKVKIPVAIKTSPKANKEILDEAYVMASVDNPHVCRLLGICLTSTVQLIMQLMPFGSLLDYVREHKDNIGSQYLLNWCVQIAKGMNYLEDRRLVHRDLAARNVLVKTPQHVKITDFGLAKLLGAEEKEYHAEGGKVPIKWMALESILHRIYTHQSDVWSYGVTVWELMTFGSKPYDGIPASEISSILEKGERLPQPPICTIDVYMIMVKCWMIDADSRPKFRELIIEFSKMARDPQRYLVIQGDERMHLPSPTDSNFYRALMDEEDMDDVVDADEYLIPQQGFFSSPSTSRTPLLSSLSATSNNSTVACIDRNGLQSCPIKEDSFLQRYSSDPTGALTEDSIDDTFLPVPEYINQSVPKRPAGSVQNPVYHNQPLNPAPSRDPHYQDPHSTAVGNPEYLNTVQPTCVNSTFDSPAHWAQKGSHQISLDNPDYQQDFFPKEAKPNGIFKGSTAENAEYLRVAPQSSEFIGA

The IC50 is the point on the concentration scale where inhibition reaches its midpoint. By AUC(0-t) is commonly meant exposure summed from dosing to a finite time, without extrapolation to infinity. A low value points to less exposure. As a reminder, the Cmax is the peak of the concentration-time curve. Usually Tmax stands for the time at which the peak concentration occurs. Usually half-life stands for the time needed for the level to fall by half in the phase considered. Read a high half-life as slow loss. As for `CN(C)C1CC2(CCN(c3ccc(Nc4ncc(Cl)c(Nc5ccccc5P(C)(C)=O)n4)cc3Cl)CC2)C1` [Example 6, (2-((5-chloro-2-((3-chloro-4-(2-(dimethylamino)-7-azaspiro[3.5]nonan-7-yl)phenyl)amino)pyrimidin-4-yl)amino)phenyl)dimethylphosphine oxide], half-maximal inhibition in series [1] (IC50) was put at 44.7 nM. Besides, in series [2] (setting [8]), the exposure AUC(0-t) is 8810 ng·h/mL, the Cmax turned out to be 741 ng/mL, the time of peak concentration (Tmax) was 4 h and the half-life is 3 h. In addition, the IC50 in series [3] (numeric values) came to 1.3 nM. Besides, in series [4] (class symbols), the GI50 is 10 to 50 nM. The GI50 in series [5] (class symbols) lay within 10 to 50 nM. Also, in series [6], the IC50 was 0.37 nM.

As to `Cc1cc(Nc2ncc(Cl)c(Nc3ccccc3P(C)(C)=O)n2)ccc1N1CC2(CCC(N(C)C)CC2)C1` [Example 1, (2-((5-chloro-2-((4-(7-(dimethylamino)-2-azaspiro[3.5]nonan-2-yl)-3-methylphenyl)amino)pyrimidin-4-yl)amino)phenyl)dimethylphosphine oxide], the IC50 in series [1] is 48.8 nM; in series [3] (class symbols) it was ≤ 2 nM; in series [6] it was 0.9 nM; in series [7], 43 nM. Besides, the exposure AUC(0-t) in series [2] (setting [9]) is 1540 ng·h/mL. In series [2] (setting [9]), the peak concentration (Cmax) stood at 141 ng/mL. In addition, the Tmax in series [2] (setting [9]) worked out at 1.67 h. In series [2] (setting [9]), the half-life was 6.53 h. In addition, the figures for the GI50 in series [4] (numeric values) and in series [5] (numeric values) were 5.8 nM and 6 nM, respectively.

Turning to `CP(C)(=O)c1ccccc1Nc1nc(Nc2ccc(N3CCC4(CC3)CC(N)C4)c(Cl)c2)ncc1Cl` [Example 8, (2-((2-((4-(2-amino-7-azaspiro[3.5]nonan-7-yl)-3-chlorophenyl)amino)-5-chloropyrimidin-4-yl)amino)phenyl)dimethylphosphine oxide], the IC50 in series [1] turned out to be 57.5 nM. For the same molecule, in series [2] (setting [8]), the AUC(0-t) was determined as 2820 ng·h/mL, the highest concentration (Cmax) was found to be 388 ng/mL, the Tmax came to 2.08 h and the half-life is 3.17 h. Also, in series [3] (numeric values), the IC50 came out at 1.6 nM. Besides, the GI50 in series [4] (numeric values) was found to be 21.5 nM. In series [5] (numeric values), the GI50 came out at 17.3 nM. Besides, the concentration for half-maximal inhibition (IC50) in series [6] was found to be 0.58 nM.

For the molecule `Cc1cc(Nc2ncc(Cl)c(Nc3ccccc3P(C)(C)=O)n2)ccc1N1CCC2(CC1)CC(N)C2` [Example 14, (2-((2-((4-(2-amino-7-azaspiro[3.5]nonan-7-yl)-3-methylphenyl)amino)-5-chloropyrimidin-4-yl)amino)phenyl)dimethylphosphine oxide], the 50% inhibitory concentration (IC50) in series [1] is 17.5 nM; in series [3] (numeric values), 1.2 nM; in series [6] it was 0.31 nM; in series [7], 27 nM. Moreover, the GI50 turned out to be 13.2 nM in series [4] (numeric values) and 15.1 nM in series [5] (numeric values).

Consider `Cc1cc(Nc2ncc(Cl)c(Nc3ccccc3P(C)(C)=O)n2)ccc1N1CC2(CCC(NC3CC3)CC2)C1` [Example 4, (2-((5-chloro-2-((4-(7-(cyclopropylamino)-2-azaspiro[3.5]nonan-2-yl)-3-methylphenyl)amino)pyrimidin-4-yl)amino)phenyl)dimethylphosphine oxide], for which the IC50 is 26.9 nM in series [1], 1.5 nM in series [3] (numeric values), 1 nM in series [6] and 21 nM in series [7]. The AUC(0-t) in series [2] (setting [8]) is 1020 ng·h/mL. This molecule also came in with a Cmax in series [2] (setting [8]) of 71.3 ng/mL. For the same molecule, in series [2] (setting [8]), the time of peak concentration (Tmax) stood at 6 h. Further, the half-life in series [2] (setting [8]) is 6.27 h. For the same molecule, the GI50 in series [4] (class symbols) is ≤ 10 nM; in series [5] (class symbols) it was 10 to 50 nM.

The record behind these values is patent US20220064196A1, “EGFR Inhibitors, Compositions and Methods Thereof” (Betta Pharmaceuticals Co., Ltd., priority 2019, published 2022).
